Source: US11739098B2 (BRISTOL-MYERS SQUIBB COMPANY, priority 2017, dated 2023)

Columns and labels:
Assay type in all cases: cell-based
human TLR8 = target: T1, human TLR8 (Homo sapiens, UniProt Q9NR97); assay: TLR8 inhibition reporter assay (HEK-Blue cells, SEAP reporter, R848 stimulation); details: HEK-Blue cells overexpressing human TLR8, SEAP reporter, R848 15.9 μM
T1 construct: host or cells: HEK-Blue cells (HEK293-derived reporter line)
T1 sequence (Q9NR97 27-1041): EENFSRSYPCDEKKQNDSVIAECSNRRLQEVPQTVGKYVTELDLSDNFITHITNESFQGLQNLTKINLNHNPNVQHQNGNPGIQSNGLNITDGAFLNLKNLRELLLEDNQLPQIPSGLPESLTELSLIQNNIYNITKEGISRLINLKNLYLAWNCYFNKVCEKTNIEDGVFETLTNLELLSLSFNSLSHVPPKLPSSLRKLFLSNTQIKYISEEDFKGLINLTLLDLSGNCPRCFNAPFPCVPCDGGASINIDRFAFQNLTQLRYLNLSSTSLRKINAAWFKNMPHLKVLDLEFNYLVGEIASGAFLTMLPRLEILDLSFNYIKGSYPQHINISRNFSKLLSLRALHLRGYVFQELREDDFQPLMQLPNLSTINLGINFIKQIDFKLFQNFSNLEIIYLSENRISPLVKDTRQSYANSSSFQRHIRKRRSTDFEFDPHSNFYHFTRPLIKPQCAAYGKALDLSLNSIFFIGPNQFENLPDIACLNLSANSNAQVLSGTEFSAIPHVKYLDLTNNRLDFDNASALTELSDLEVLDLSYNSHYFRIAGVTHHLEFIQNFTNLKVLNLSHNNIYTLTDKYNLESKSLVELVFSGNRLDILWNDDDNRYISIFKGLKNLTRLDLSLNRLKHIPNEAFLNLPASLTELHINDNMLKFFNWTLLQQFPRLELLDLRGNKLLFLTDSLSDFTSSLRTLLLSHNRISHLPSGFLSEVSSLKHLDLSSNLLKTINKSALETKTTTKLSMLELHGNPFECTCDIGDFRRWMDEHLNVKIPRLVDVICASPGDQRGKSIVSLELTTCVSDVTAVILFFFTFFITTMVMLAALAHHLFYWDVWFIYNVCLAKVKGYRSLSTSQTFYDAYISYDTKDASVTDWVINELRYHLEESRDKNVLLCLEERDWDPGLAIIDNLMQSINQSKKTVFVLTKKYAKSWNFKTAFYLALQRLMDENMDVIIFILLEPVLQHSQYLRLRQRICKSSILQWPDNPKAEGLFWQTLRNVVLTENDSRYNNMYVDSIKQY
Outline: (§1)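 Percent inhibition of agonist-induced SEAP secretion in HEK-Blue cells after 22 h at 37 °C. Stimuli: 7.5 μM gardiquimod, 15.9 μM R848, 5 nM ODN2006 for TLR7, TLR8 and TLR9, added after 30 min compound exposure over a 0.05 nM–50 μM range.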

human TLR9 = target: T2, human TLR9 (Homo sapiens, UniProt Q9NR96); assay: TLR9 inhibition reporter assay (HEK-Blue cells, SEAP reporter, ODN2006 stimulation); details: HEK-Blue cells overexpressing human TLR9, SEAP reporter, ODN2006 5 nM
T2 construct: host or cells: HEK-Blue cells (HEK293-derived reporter line)
T2 sequence (Q9NR96 26-1032): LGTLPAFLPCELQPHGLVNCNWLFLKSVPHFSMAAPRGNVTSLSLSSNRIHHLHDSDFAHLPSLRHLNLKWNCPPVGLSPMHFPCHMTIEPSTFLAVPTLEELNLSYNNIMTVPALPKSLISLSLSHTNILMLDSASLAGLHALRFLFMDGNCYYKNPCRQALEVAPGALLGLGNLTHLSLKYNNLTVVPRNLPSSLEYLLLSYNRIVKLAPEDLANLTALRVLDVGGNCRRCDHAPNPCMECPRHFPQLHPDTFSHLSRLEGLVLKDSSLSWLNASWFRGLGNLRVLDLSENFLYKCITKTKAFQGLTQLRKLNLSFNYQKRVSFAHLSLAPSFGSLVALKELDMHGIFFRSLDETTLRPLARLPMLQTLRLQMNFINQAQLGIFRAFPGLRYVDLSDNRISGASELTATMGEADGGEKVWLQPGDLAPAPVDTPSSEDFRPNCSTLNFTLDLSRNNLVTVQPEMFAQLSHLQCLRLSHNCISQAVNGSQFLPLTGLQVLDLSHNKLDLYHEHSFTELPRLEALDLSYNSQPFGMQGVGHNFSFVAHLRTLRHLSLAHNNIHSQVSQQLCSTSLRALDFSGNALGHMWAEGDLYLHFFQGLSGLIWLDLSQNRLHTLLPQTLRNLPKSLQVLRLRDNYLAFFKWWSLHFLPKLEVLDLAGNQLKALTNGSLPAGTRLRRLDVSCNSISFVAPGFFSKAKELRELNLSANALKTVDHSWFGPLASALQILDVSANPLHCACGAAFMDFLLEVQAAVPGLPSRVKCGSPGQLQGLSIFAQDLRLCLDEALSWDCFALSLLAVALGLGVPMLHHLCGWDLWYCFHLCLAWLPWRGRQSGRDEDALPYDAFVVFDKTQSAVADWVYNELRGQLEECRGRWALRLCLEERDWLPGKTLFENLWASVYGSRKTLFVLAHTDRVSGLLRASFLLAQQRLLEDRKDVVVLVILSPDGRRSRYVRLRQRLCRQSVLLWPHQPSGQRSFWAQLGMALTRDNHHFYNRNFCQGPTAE
Outline: as §1

human TLR7 = target: T3, human TLR7 (Homo sapiens, UniProt Q9NYK1); assay: TLR7 inhibition reporter assay (HEK-Blue cells, SEAP reporter, gardiquimod stimulation); details: HEK-Blue cells overexpressing human TLR7, SEAP reporter, gardiquimod 7.5 μM
T3 construct: host or cells: HEK-Blue cells (HEK293-derived reporter line)
T3 sequence (Q9NYK1 27-1049): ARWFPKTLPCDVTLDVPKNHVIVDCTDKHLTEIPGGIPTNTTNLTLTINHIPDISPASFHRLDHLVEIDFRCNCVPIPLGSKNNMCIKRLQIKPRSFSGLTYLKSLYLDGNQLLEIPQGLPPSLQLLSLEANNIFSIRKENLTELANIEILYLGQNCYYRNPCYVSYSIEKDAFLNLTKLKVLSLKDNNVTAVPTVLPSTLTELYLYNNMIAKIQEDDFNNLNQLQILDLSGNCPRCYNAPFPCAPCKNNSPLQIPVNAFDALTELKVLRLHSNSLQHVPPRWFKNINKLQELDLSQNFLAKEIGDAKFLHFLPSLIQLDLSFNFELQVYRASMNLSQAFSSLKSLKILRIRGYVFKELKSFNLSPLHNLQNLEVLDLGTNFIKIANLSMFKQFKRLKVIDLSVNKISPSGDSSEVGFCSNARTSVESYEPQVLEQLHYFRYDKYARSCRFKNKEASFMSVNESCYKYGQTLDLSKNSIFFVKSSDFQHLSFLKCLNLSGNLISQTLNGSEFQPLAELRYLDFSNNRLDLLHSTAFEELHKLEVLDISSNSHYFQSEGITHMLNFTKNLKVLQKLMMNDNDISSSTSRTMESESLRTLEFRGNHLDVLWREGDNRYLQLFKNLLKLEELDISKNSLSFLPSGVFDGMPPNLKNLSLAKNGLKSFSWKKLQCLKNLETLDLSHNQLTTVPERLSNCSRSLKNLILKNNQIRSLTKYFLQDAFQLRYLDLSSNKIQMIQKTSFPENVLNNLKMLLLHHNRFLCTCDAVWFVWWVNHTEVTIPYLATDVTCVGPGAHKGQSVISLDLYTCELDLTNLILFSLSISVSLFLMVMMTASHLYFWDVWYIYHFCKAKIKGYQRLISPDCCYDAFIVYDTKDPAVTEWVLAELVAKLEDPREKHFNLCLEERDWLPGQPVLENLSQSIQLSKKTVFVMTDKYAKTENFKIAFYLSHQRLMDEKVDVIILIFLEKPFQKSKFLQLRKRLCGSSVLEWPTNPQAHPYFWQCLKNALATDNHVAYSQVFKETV
Outline: as §1

SMILES | IC50 (human TLR8) [nM] | IC50 (human TLR9) [nM] | IC50 (human TLR7) [nM]
CC(=O)N1CCC[C@H]1C(=O)N1CCC(c2ccc3[nH]c(-c4ccnc5[nH]ncc45)c(C(C)C)c3c2)CC1 [Example 566, (S)-1-(2-(4-(3-isopropyl-2-(1H-pyrazolo[3,4-b]pyridin-4-yl)-1H-indol-5-yl)piperidine-1-carbonyl)pyrrolidin-1-yl)ethan-1-one] | 100 to 1000 | > 50000 | 100 to 1000
Cc1cc(-c2[nH]c3ccc(C4CCN(C(=O)CCN(C)C5CC5)CC4)cc3c2C(C)C)cn2nnnc12 [Example 623, 3-(cyclopropyl(methyl)amino)-1-(4-(3-isopropyl-2-(8-methyltetrazolo[1,5-a]pyridin-6-yl)-1H-indol-5-yl)piperidin-1-yl)propan-1-one] | < 100 | 1000 to 50000 | < 100
COc1ncc(CN2CCC(c3ccc4[nH]c(-c5ccnc6[nH]ncc56)c(C(C)C)c4c3)CC2)cn1 [Example 909, 4-(3-isopropyl-5-(1-((2-methoxypyrimidin-5-yl)methyl)piperidin-4-yl)-1H-indol-2-yl)-1H-pyrazolo[3,4-b]pyridine] | < 100 | 1000 to 50000 | < 100
Cc1c(C2CCNCC2)ccc2[nH]c(-c3ccnc4[nH]ncc34)c(C)c12 [Example 256, 4-(3,4-dimethyl-5-(piperidin-4-yl)-1H-indol-2-yl)-1H-pyrazolo[3,4-b]pyridine] | < 100 | 1000 to 50000 | < 100
CCc1c(-c2cccc3[nH]ncc23)[nH]c2ccc(C3CCNCC3)cc12 [Example 182, 4-(3-ethyl-5-(piperidin-4-yl)-1H-indol-2-yl)-1H-indazole] | 1000 to 50000 | 1000 to 50000 | 1000 to 50000
Cc1c(-c2ccc3[nH]nnc3c2)[nH]c2ccc(C3CCNCC3)cc12 [Example 52, 5-(3-methyl-5-(piperidin-4-yl)-1H-indol-2-yl)-1H-benzo[d][1,2,3]triazole] | 1000 to 50000 | 100 to 1000 | 1000 to 50000
Cc1c(-c2ccnc3[nH]cnc23)[nH]c2ccc(C3CCNCC3)cc12 [Example 60, 7-(3-methyl-5-(piperidin-4-yl)-1H-indol-2-yl)-3H-imidazo[4,5-b]pyridine] | 100 to 1000 | 100 to 1000 | < 100
CNC(=O)CN1CCC(c2ccc3[nH]c(-c4cccn5ncnc45)c(C(C)C)c3c2)CC1 [Example 361, 2-(4-(2-([1,2,4]triazolo[1,5-a]pyridin-8-yl)-3-isopropyl-1H-indol-5-yl)piperidin-1-yl)-N-methylacetamide] | 100 to 1000 | 1000 to 50000 | 100 to 1000
CC(C)c1c(-c2ccnc3[nH]ncc23)[nH]c2ccc(C3CCN(Cc4ccccc4OCCCN(C)C)CC3)cc12 [Example 921, 3-(2-((4-(3-isopropyl-2-(1H-pyrazolo[3,4-b]pyridin-4-yl)-1H-indol-5-yl)piperidin-1-yl)methyl)phenoxy)-N,N-dimethylpropan-1-amine] | < 100 | 100 to 1000 | 100 to 1000
CNC(=O)CN1CCC(c2ccc3[nH]c(-c4cc(C(F)(F)F)c5nc(C)cn5c4)c(C(C)C)c3c2)CC1 [Example 377, 2-(4-(3-isopropyl-2-(2-methyl-8-(trifluoromethyl)imidazo[1,2-a]pyridin-6-yl)-1H-indol-5-yl)piperidin-1-yl)-N-methylacetamide] | 100 to 1000 | 1000 to 50000 | < 100
Cc1cn2cc(-c3[nH]c4ccc(C5CCNCC5)cc4c3C(C)C)cc(C(F)(F)F)c2n1 [Example 137, 6-(3-isopropyl-5-(piperidin-4-yl)-1H-indol-2-yl)-2-methyl-8-(trifluoromethyl)imidazo[1,2-a]pyridine] | 100 to 1000 | 100 to 1000 | < 100
Cc1cc(-c2[nH]c3ccc(C4CCN(CC(C)(C)O)CC4)cc3c2C(C)C)c2ccccc2n1 [Example 752, 1-(4-(3-isopropyl-2-(2-methylquinolin-4-yl)-1H-indol-5-yl)piperidin-1-yl)-2-methylpropan-2-ol] | < 100 | 1000 to 50000 | < 100
CCCN1CCC(c2ccc3[nH]c(-c4cc(OC)c5ncnn5n4)c(C(C)C)c3c2)CC1 [Example 952, 6-(3-isopropyl-5-(1-propylpiperidin-4-yl)-1H-indol-2-yl)-8-methoxy-[1,2,4]triazolo[1,5-b]pyridazine] | < 100 | 1000 to 50000 | < 100
CC(C)c1c(-c2ccnc3[nH]ncc23)[nH]c2ccc(C3CCN(C(=O)C4CCCNC4)CC3)cc12 (stereo not drawn) [Example 636, (4-(3-isopropyl-2-(1H-pyrazolo[3,4-b]pyridin-4-yl)-1H-indol-5-yl)piperidin-1-yl)(piperidin-3-yl)methanone] | < 100 | 100 to 1000 | < 100
Cc1cc(-c2[nH]c3ccc(C4CCNCC4)cc3c2C(C)C)cn2c(C(N)=O)cnc12 [Example 261, 6-(3-isopropyl-5-(piperidin-4-yl)-1H-indol-2-yl)-8-methylimidazo[1,2-a]pyridine-3-carboxamide] | 100 to 1000 | 1000 to 50000 | < 100
